Laboratory results as given in PMC8150913, “Chromene-Containing Aromatic Sulfonamides with Carbonic Anhydrase Inhibitory Properties” (International Journal of Molecular Sciences, 2021).
One block for each compound: values may come before it.

Tests used:
[1] = target: T1, hCA XII (Homo sapiens, UniProt O43570); assay: Stopped-flow CA-catalyzed CO2 hydration inhibition assay; format: biochemical; conditions: stopped flow technique, mean from three different assays, recombinant enzyme, pH 7.4
T1 construct: made in house
T1 sequence (O43570 25-354): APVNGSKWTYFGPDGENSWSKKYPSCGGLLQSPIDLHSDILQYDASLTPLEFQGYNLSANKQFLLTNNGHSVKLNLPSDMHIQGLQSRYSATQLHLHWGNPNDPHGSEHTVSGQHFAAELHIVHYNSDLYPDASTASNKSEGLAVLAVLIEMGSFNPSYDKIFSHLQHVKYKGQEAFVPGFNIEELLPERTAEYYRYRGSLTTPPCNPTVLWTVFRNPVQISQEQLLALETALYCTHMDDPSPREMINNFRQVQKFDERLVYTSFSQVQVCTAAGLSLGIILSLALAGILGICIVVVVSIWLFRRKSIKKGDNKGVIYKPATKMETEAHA
Protocol: (§1) An Applied Photophysics stopped-flow instrument was used for assaying the CA catalyzed CO2 hydration activity. Phenol red (at a concentration of 0.2 mM) was used as an indicator, working at the absorbance maximum of 557 nm, with 20 mM Hepes (pH 7.4) as a buffer, and 20 mM Na2SO4 (for maintaining constant ionic strength), following the initial rates of the CA-catalyzed CO2 hydration reaction for a period of 10–100 s. The CO2 concentrations ranged from 1.7 to 17 mM for the determination of the kinetic parameters and inhibition constants. […] However, the background activity from the uncatalyzed reaction is always subtracted when IC50 values are obtained by using the data analysis software for the stopped flow instrument. […] For each inhibitor, at least six traces of the initial 5–10% of the reaction were used for determining the initial velocity. The uncatalyzed rates were determined in the same manner and subtracted from the total observed rates. Stock solutions of the inhibitor (0.1 mM) were prepared in distilled, deionized water, and dilutions up to 0.01 nM were done thereafter with the assay buffer. Inhibitor and enzyme solutions were preincubated together for 15 min at room temperature prior to the assay, allowing the formation of the E–I complex. The inhibition constants were obtained by non-linear least-squares methods using PRISM 3 and the Cheng-Prusoff equation as reported earlier, which represent the mean from at least three different determinations. All CA isoforms were recombinant proteins obtained in house, as reported earlier.

[2] = target: T2, hCA I (Homo sapiens, UniProt P00915); assay: as above; format: biochemical; conditions: stopped flow technique, mean from three different assays, recombinant enzyme, pH 7.4
T2 construct: made in house
T2 sequence (P00915 whole entry): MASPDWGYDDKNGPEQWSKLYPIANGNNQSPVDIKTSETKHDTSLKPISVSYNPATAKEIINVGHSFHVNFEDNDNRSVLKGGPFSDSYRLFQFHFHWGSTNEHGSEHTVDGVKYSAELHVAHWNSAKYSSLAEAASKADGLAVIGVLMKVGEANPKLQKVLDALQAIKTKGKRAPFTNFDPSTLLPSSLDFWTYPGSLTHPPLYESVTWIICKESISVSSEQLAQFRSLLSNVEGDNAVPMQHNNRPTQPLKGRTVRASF
Protocol: as §1

[3] = target: T3, hCA IX (Homo sapiens, UniProt Q16790); assay: as above; format: biochemical; conditions: stopped flow technique, mean from three different assays, recombinant enzyme, pH 7.4
T3 construct: made in house
Protocol: as §1

[4] = target: T4, hCA II (Homo sapiens, UniProt P00918); assay: as above; format: biochemical; conditions: for Ki: stopped flow technique, mean from three different assays, recombinant enzyme, pH 7.4
T4 construct: made in house
Protocol: as §1

SMILES: Cc1cc2oc(C(=O)Nc3ccc(S(N)(=O)=O)cc3)cc(=O)c2cc1Cl [5j, 6-Chloro-7-methyl-4-oxo-N-(4-sulfamoylphenyl)-4H-chromene-2-carboxamide]
melting point: 305 to 307 °C
Ki [1]: 155 ± 10.1 nM
Ki [2]: 580 ± 50.5 nM
Ki [3]: 516 ± 37.2 nM
Ki [4]: 901 ± 75.4 nM

SMILES: Cc1cc2oc(C(=O)Nc3ccc(S(N)(=O)=O)cc3)cc(=O)c2cc1C [5e, 6,7-Dimethyl-4-oxo-N-(4-sulfamoylphenyl)-4H-chromene-2-carboxamide]
melting point: 310 to 312 °C
Ki [1]: 619 ± 36.7 nM
Ki [2]: 2890 ± 161 nM
Ki [3]: 299 ± 18.4 nM
Ki [4]: 311 ± 28.3 nM

SMILES: CCc1ccc2oc(C(=O)NCCc3ccc(S(N)(=O)=O)cc3)cc(=O)c2c1 [6g, 6-Ethyl-4-oxo-N-(4-sulfamoylphenethyl)-4H-chromene-2-carboxamide]
melting point: 257 to 259 °C
Ki [1]: 148 ± 8.1 nM
Ki [2]: 971 ± 82.4 nM
Ki [3]: 183 ± 16.1 nM
Ki [4]: 280 ± 15.5 nM

SMILES: Cc1ccc2oc(C(=O)NCCc3ccc(S(N)(=O)=O)cc3)cc(=O)c2c1 [6e, 6-Methyl-4-oxo-N-(4-sulfamoylphenethyl)-4H-chromene-2-carboxamide]
melting point: 257 to 259 °C
Ki [1]: 439 ± 32.2 nM
Ki [2]: 247 ± 24.3 nM
Ki [3]: 72.7 ± 4.3 nM
Ki [4]: 36.4 ± 2.1 nM

SMILES: CCc1ccc2oc(C(=O)Nc3ccc(S(N)(=O)=O)cc3)cc(=O)c2c1 [5d, 6-Ethyl-4-oxo-N-(4-sulfamoylphenyl)-4H-chromene-2-carboxamide]
melting point: 297 to 299 °C

SMILES: Cc1ccc2c(=O)cc(C(=O)NCCc3ccc(S(N)(=O)=O)cc3)oc2c1 [6f, 7-Methyl-4-oxo-N-(4-sulfamoylphenethyl)-4H-chromene-2-carboxamide]
melting point: 253 to 255 °C
Ki [1]: 337 ± 27.4 nM
Ki [2]: 334 ± 17.5 nM
Ki [3]: 64.8 ± 3.4 nM
selectivity index (SI) hCA II compared to hCA I ([4]; ratio of Ki values): 44.47
selectivity index (SI) hCA II compared to hCA XII ([4]; ratio of Ki values): 44.97
Ki [4]: 7.5 ± 0.5 nM

SMILES: NS(=O)(=O)c1ccc(CCNC(=O)c2cc(=O)c3ccccc3o2)cc1 [6d, 4-Oxo-N-(4-sulfamoylphenethyl)-4H-chromene-2-carboxamide]
melting point: 248 to 250 °C
Ki [1]: 212 ± 13.7 nM
Ki [2]: 322 ± 27.9 nM
Ki [3]: 81 ± 7.7 nM
Ki [4]: 16.6 ± 1.2 nM

SMILES: NS(=O)(=O)c1ccc(NC(=O)c2cc(=O)c3cc(Cl)ccc3o2)cc1 [5i, 6-Chloro-4-oxo-N-(4-sulfamoylphenyl)-4H-chromene-2-carboxamide]
melting point: 296 to 298 °C
Ki [1]: 425 ± 41 nM
Ki [2]: 2700 ± 265 nM
Ki [3]: 51 ± 4.8 nM
Ki [4]: 66.2 ± 5.8 nM

SMILES: Cc1ccc2oc(C(=O)NCc3ccc(S(N)(=O)=O)cc3)cc(=O)c2c1 [6b, 6-Methyl-4-oxo-N-(4-sulfamoylbenzyl)-4H-chromene-2-carboxamide]
melting point: 293 to 295 °C
Ki [1]: 320 ± 23.2 nM
Ki [2]: 612 ± 49.5 nM
Ki [3]: 2040 ± 189 nM
Ki [4]: 81.7 ± 4.2 nM

The remaining lines, values ahead:

melting point: 296 to 298 °C
Ki [1]: 20.1 ± 1.7 nM
Ki [2]: 525 ± 44.4 nM
Ki [3]: 16.6 ± 1.5 nM
Ki [4]: 35.1 ± 3.3 nM
SMILES: NS(=O)(=O)c1ccc(NC(=O)c2cc(=O)c3ccccc3o2)cc1 [5a, 4-Oxo-N-(4-sulfamoylphenyl)-4H-chromene-2-carboxamide]

melting point: 280 to 282 °C
Ki [1]: 132 ± 11 nM
Ki [2]: 214 ± 15.9 nM
Ki [3]: 84.5 ± 4.3 nM
Ki [4]: 39.2 ± 3.7 nM
SMILES: Cc1ccc2c(=O)cc(C(=O)NCCc3ccc(S(N)(=O)=O)cc3)oc2c1C [6i, 7,8-Dimethyl-4-oxo-N-(4-sulfamoylphenethyl)-4H-chromene-2-carboxamide]

melting point: 328 to 330 °C
Ki [1]: 76.3 ± 6 nM
Ki [2]: 341 ± 29.6 nM
Ki [3]: 19.5 ± 1.6 nM
Ki [4]: 9.3 ± 0.5 nM
SMILES: Cc1ccc2c(=O)cc(C(=O)Nc3ccc(S(N)(=O)=O)cc3)oc2c1C [5f, 7,8-Dimethyl-4-oxo-N-(4-sulfamoylphenyl)-4H-chromene-2-carboxamide]

melting point: 304 to 306 °C
Ki [1]: 46.4 ± 4.4 nM
Ki [2]: 682 ± 40.6 nM
Ki [3]: 54.7 ± 5 nM
Ki [4]: 61.4 ± 4.4 nM
SMILES: Cc1cc(C)c2c(=O)cc(C(=O)Nc3ccc(S(N)(=O)=O)cc3)oc2c1 [5g, 5,7-Dimethyl-4-oxo-N-(4-sulfamoylphenyl)-4H-chromene-2-carboxamide]

melting point: 309 to 311 °C
Ki [1]: 26.8 ± 1.4 nM
Ki [2]: 505 ± 27 nM
Ki [3]: 22.5 ± 1.9 nM
Ki [4]: 46.6 ± 2.9 nM
SMILES: Cc1cc(C)c2oc(C(=O)Nc3ccc(S(N)(=O)=O)cc3)cc(=O)c2c1 [5h, 6,8-Dimethyl-4-oxo-N-(4-sulfamoylphenyl)-4H-chromene-2-carboxamide]

melting point: 307 to 308 °C
Ki [1]: 64.8 ± 6.1 nM
Ki [2]: 5310 ± 272 nM
Ki [3]: 77 ± 6.5 nM
Ki [4]: 95.9 ± 8 nM
SMILES: Cc1ccc2oc(C(=O)Nc3ccc(S(N)(=O)=O)cc3)cc(=O)c2c1 [5b, 6-Methyl-4-oxo-N-(4-sulfamoylphenyl)-4H-chromene-2-carboxamide]

melting point: 283 to 285 °C
Ki [1]: 31.4 ± 2.6 nM
Ki [2]: 4410 ± 347 nM
Ki [3]: 91.1 ± 8.9 nM
Ki [4]: 143 ± 12.8 nM
SMILES: Cc1cc(C)c2oc(C(=O)NCCc3ccc(S(N)(=O)=O)cc3)cc(=O)c2c1 [6j, 6,8-Dimethyl-4-oxo-N-(4-sulfamoylphenethyl)-4H-chromene-2-carboxamide]

melting point: 285 to 287 °C
Ki [1]: 41.4 ± 3.4 nM
Ki [2]: 927 ± 68.9 nM
Ki [3]: 1920 ± 146 nM
Ki [4]: 91.6 ± 7 nM
SMILES: NS(=O)(=O)c1ccc(CCNC(=O)c2cc(=O)c3cc(Cl)ccc3o2)cc1 [6k, 6-Chloro-4-oxo-N-(4-sulfamoylphenethyl)-4H-chromene-2-carboxamide]

melting point: 282 to 284 °C
Ki [1]: 22.6 ± 1.5 nM
Ki [2]: 547 ± 39.2 nM
Ki [3]: 51.4 ± 4.5 nM
Ki [4]: 51.2 ± 3.6 nM
SMILES: Cc1cc2oc(C(=O)NCCc3ccc(S(N)(=O)=O)cc3)cc(=O)c2cc1C [6h, 6,7-Dimethyl-4-oxo-N-(4-sulfamoylphenethyl)-4H-chromene-2-carboxamide]

melting point: 309 to 311 °C
Ki [1]: 50.8 ± 4.3 nM
Ki [2]: 3560 ± 228 nM
Ki [3]: 63.4 ± 6.3 nM
Ki [4]: 39.5 ± 3.2 nM
SMILES: Cc1ccc2c(=O)cc(C(=O)Nc3ccc(S(N)(=O)=O)cc3)oc2c1 [5c, 7-Methyl-4-oxo-N-(4-sulfamoylphenyl)-4H-chromene-2-carboxamide]

melting point: 284 to 286 °C
Ki [1]: 34 ± 2.2 nM
Ki [2]: 628 ± 35.5 nM
Ki [3]: 855 ± 49.2 nM
Ki [4]: 219 ± 11.8 nM
SMILES: NS(=O)(=O)c1ccc(CNC(=O)c2cc(=O)c3ccccc3o2)cc1 [6a, 4-Oxo-N-(4-sulfamoylbenzyl)-4H-chromene-2-carboxamide]

melting point: 299 to 301 °C
Ki [1]: 59.4 ± 5 nM
Ki [2]: 2650 ± 227 nM
Ki [3]: 3280 ± 302 nM
Ki [4]: 679 ± 45 nM
SMILES: NS(=O)(=O)c1ccc(CNC(=O)c2cc(=O)c3cc(Cl)ccc3o2)cc1 [6c, 6-Chloro-4-oxo-N-(4-sulfamoylbenzyl)-4H-chromene-2-carboxamide]
